From PubChem BioAssay AID1645868 (Buhrlage Lab, Dana-Farber Cancer Institute and Novartis …, 2021)
The source made the active and inactive calls.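 The calls were made as follows: active = maximal percent inhibition of the deubiquitinase OTUD3 of at least 30% across the tested doses; inactive = the rest.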

Target: OTU domain-containing protein 3 (Homo sapiens) (UniProt Q5T2D3)
Assay: Validation of screening hits, potency titration, in vitro enzymatic, OTU domain-containing protein 3 DUB inhibitors (AID 1645868)
Conditions: purified OTUD3, ubiquitin-rhodamine cleavage fluorescence, 2 h

Chain of OTU domain-containing protein 3 (Homo sapiens) (Q5T2D3 whole entry, looked up, the tested form may be a part): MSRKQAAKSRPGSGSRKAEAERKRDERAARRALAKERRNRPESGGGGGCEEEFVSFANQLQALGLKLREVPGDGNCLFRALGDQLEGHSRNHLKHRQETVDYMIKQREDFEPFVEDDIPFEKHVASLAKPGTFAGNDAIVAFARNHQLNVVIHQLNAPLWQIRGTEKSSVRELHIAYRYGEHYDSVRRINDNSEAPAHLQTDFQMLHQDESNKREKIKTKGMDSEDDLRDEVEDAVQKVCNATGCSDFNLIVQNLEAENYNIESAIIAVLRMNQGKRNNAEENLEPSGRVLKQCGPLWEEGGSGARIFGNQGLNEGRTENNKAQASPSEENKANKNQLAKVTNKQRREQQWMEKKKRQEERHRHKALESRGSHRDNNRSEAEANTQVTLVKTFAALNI

IC50 | Structure (SMILES)
29.7 µM | COc1cccc(NC(=O)C2C3C=CC4(O3)C2C(=O)N(CCc2ccccc2Cl)C4C(=O)NC2CCCCC2)c1 (stereo unspecified)
> 50 µM (inactive) | N#Cc1ccc(-c2ccc(OCC(=O)Nc3ccc4c(c3)OCO4)cc2)cc1
> 50 µM (inactive) | Cc1cnc(CN2CCCC(c3ccc4cn[nH]c4n3)C2)cn1 (stereo unspecified)
31.8 µM | CCC(C)c1ccc(-c2csc(Cn3c(CN4CCN(C)CC4)nc4ccccc4c3=O)n2)cc1 (stereo unspecified)
> 50 µM (inactive) | O=C(NCc1ccc2c(c1)OCO2)c1nnc(Cc2ccc(F)cc2)o1
> 50 µM (inactive) | Cc1ccc(C(=O)Nc2ccc(S(=O)(=O)N3CCCC3)cc2)cc1Br
> 5 µM (inactive) | O=c1c2ccccc2c(-c2nc(-c3ccncc3)no2)cn1-c1ccccc1
> 50 µM (inactive) | CC1CCc2c(sc3ncnc(NC4CCN(CC(N)=O)CC4)c23)C1 (stereo unspecified)
> 50 µM (inactive) | COc1ccc(-c2cc3c(=O)n(CC(=O)Nc4ccccc4F)ccn3n2)cc1OC
> 50 µM (inactive) | CN[C@H]1CC2(CCN(C(=O)CCCn3cccn3)CC2)OC[C@]1(C)O
37.9 µM | Cc1cc(NC(=O)c2[nH]nc3c2CCc2ccccc2-3)no1
27.9 µM | O=c1[nH]c(C2CCN(S(=O)(=O)c3ccc(S(=O)(=O)NC4CCCCC4)cc3)CC2)nc2c1nnn2Cc1c(F)cccc1Cl
20.3 µM | NC(=O)c1nnn(-c2ccc(NC(=O)c3ccc(F)c(F)c3)cc2)n1
24.5 µM | Cc1ccc(Cl)cc1NC(=O)c1cc(-c2ccccn2)n[nH]1
> 50 µM (inactive) | O=C1COc2ccccc2N1Cc1noc(-c2ccccc2)n1
> 50 µM (inactive) | CC(C)(C)c1ccc(Cn2nnc3c(=O)[nH]c(C4CCN(S(=O)(=O)c5ccc(S(=O)(=O)NC6CC6)cc5)CC4)nc32)cc1
> 50 µM (inactive) | COc1ccc(NC(=O)CS(=O)(=O)c2[nH]c(-c3ccc(C)cc3)nc2-c2ccccc2)cc1Cl
> 50 µM (inactive) | O=C(Nc1ccc(Cl)cc1F)c1cc(-c2ccccn2)n[nH]1
> 50 µM (inactive) | CC(C)(C)C(=O)Nc1ccc(SCc2nnc(-c3ccccc3)o2)cc1
> 50 µM (inactive) | Cc1nn(-c2ccccc2)c(C)c1C(=O)OCC(=O)Nc1cccc(C#N)c1
> 50 µM (inactive) | CCN1C(SCc2ccccc2F)=NS(=O)(=O)c2ccccc21
32.6 µM | Fc1cc(F)c2[nH]cc(-c3nnnn3-c3ccc4ccccc4c3)c2c1
> 50 µM (inactive) | Cc1noc(-c2cccn(Cc3cccc(C(F)(F)F)c3)c2=O)n1

IC50 | Structure (SMILES)
> 50 µM (inactive) | O=C(OCc1cccc(Cl)c1)c1ccc2ccccc2n1
4.1 µM | O=C(Nc1ccccc1-c1nc2ccccc2[nH]1)c1sc2ccccc2c1Cl
> 50 µM (inactive) | O=C(Cn1c(=O)n(Cc2ccc(F)cc2)c(=O)c2ncccc21)Nc1ccccc1
> 50 µM (inactive) | O=C(Cn1c(=O)n(Cc2ccco2)c(=O)c2ccc(C(=O)NC3CCCC3)cc21)NCc1ccco1
42.1 µM | COc1ccc(CNC(=O)c2ccccc2N2C(=O)N3CCc4c([nH]c5ccccc45)[C@@]3(C)C2=O)cc1
> 50 µM (inactive) | CCCOc1ccc(C(=O)Nc2ccc(S(=O)(=O)Nc3cc(C)nc(C)n3)cc2)cc1
> 50 µM (inactive) | O=C(CSc1cn(Cc2ccccc2)c2ccccc12)Nc1ccc2c(c1)OCCO2
> 50 µM (inactive) | FC(F)(F)c1ccccc1CCN1CCc2nc3ccc(Cl)cc3cc2C1
3.25 µM | CC(C)=CCC/C(C)=C/Cc1c(O)cc2c(c1O)C(=O)OC2
> 50 µM (inactive) | Cc1ccc(S(=O)(=O)N2CCC3(CC2)NC(=O)c2ccccc2N3)cc1C
> 50 µM (inactive) | O=C(CCC1CCCCC1)Nc1ccccc1C(=O)N1CCOCC1
> 50 µM (inactive) | O=C(NC1CCS(=O)(=O)C1)c1ccc(N2CCC(Cc3ccccc3)CC2)nn1 (stereo unspecified)
> 50 µM (inactive) | Cc1cc(NC(=O)c2nnn(-c3ccccc3Cl)c2C)no1
47.6 µM | CC(C)c1ccc(C(C(=O)NC2CCCCC2)N(C(=O)c2cnccn2)c2cccc(F)c2)cc1 (stereo unspecified)
2.1 µM | Cc1ccc(-n2nc(C(=O)Nc3ccc(C)cn3)c3ncn(C)c(=O)c32)cc1
11.8 µM | COc1ccc(N(CC(=O)NC2CCCCC2)C(=O)c2ccc(-c3ccccc3)[nH]2)cc1OC
> 50 µM (inactive) | CC(C(=O)NCc1ccc2c(c1)OCO2)N1CCN(c2ccc(O)cc2)CC1 (stereo unspecified)
48.5 µM | COc1cc2c(c(OCC(=O)Nc3ccc4c(c3)OCCO4)c1)C(=O)O[C@@H](C)CCCC(=O)CCCCC2
> 50 µM (inactive) | Cc1cc(C(F)(F)F)n2nc(C3CCN(C(=O)c4cnn(C)c4C)C3)cc2n1 (stereo unspecified)
> 50 µM (inactive) | COc1cc2cc3c(c(O)c2c(O)c1-c1c(OC)cc2cc4c(c(O)c2c1O)C(=O)OC1CC(C)OC41)C(=O)OC1CC(C)OC31 (stereo unspecified)
> 50 µM (inactive) | Cc1nc2ccccn2c1C1(O)C(=O)Nc2c(Cl)cc(Cl)cc21 (stereo unspecified)
> 50 µM (inactive) | O=C(Nc1ccncc1)c1ncoc1-c1cccc(Cl)c1

Structure (SMILES) | IC50
Fc1ccc(CN2CCc3nc4cccnc4cc3C2)cc1 | > 50 µM (inactive)
